The values below come from article PMC3914206.

The target of assay [1] is T1, panel of 442 kinases (Homo sapiens, UniProt P04629).
T1 construct: purchased KINOMEscan
It counts as binding. As to conditions: kinase TRKA; compound concentration 10 µM. The text has this: (§1) We assessed the selectivity of members of this scaffold using the KINOMEscan methodology across a near comprehensive panel of 442 kinases [[18,27]].

The target in assay [2] is T2, panel of 442 kinases (Homo sapiens, UniProt Q9NRH2).
T2 construct: purchased KINOMEscan
T2 sequence (Q9NRH2 1-765): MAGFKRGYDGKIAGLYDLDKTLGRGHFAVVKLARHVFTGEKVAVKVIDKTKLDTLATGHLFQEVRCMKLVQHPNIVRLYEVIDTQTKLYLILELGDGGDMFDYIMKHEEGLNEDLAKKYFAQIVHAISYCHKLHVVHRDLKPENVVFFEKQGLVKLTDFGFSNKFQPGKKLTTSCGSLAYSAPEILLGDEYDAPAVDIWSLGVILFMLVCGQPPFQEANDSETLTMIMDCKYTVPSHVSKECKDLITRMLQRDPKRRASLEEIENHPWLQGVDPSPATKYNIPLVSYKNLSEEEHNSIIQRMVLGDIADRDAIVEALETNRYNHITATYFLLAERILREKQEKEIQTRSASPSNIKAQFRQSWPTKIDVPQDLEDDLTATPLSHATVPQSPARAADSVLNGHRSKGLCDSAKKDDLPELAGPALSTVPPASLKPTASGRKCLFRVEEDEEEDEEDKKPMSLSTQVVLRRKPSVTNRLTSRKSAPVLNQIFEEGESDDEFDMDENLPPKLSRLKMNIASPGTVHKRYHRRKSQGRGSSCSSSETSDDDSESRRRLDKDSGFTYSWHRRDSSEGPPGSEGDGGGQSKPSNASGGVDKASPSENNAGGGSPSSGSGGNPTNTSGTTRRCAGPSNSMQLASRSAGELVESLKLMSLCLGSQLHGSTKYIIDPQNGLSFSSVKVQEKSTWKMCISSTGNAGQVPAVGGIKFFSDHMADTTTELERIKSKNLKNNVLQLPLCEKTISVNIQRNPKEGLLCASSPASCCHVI
Format: binding. As to conditions: kinase SNRK; compound concentration 10 µM.
Text: as §1

T1 sequence (P04629 33-796): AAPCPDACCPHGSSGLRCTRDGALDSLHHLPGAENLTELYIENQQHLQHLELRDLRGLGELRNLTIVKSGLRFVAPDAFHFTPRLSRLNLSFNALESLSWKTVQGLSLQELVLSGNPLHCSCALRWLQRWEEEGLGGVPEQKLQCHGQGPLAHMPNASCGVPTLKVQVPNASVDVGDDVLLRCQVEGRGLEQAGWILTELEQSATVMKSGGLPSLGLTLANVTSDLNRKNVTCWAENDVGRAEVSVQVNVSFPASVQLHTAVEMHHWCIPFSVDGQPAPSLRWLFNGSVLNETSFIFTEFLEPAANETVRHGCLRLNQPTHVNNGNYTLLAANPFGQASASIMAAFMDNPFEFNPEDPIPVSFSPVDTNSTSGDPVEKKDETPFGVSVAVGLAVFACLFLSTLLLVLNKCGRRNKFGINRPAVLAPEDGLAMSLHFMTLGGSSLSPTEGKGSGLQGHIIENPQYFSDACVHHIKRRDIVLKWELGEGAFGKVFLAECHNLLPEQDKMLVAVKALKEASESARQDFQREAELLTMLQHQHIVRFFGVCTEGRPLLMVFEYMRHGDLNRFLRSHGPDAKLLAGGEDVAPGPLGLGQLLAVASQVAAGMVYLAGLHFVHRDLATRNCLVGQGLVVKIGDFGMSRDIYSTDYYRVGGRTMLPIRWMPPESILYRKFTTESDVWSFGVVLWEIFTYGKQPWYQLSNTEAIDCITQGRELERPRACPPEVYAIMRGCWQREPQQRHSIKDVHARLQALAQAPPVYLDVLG

With `COc1cc(C(=O)N2CCC(N3CCN(C)CC3)CC2)ccc1Nc1ncc2c(n1)N(C)c1ccccc1C(=O)N2C` [15 (LRRK2-IN-1)], the “% Ctrl, TRKA” value in assay [1] is given as 69 % Ctrl. For the same compound, in assay [2], the “% Ctrl, SNRK” value amounted to 94 % Ctrl.
For `COc1cc(C(=O)N2CCC(N3CCN(C)CC3)CC2)ccc1Nc1ncc2c(n1)N1CCc3cccc(c31)C(=O)N2C` [Compound 24], the “% Ctrl, TRKA” value in assay [1] is 93 % Ctrl.
Consider `COc1cc(C(=O)N2CCC(N3CCN(C)CC3)CC2)ccc1Nc1ncc2c(n1)N(C1CCCC1)c1ccccc1C(=O)N2C` [Compound 25, 11-cyclopentyl-2-((2-methoxy-4-(4-(4-methylpiperazin-1-yl)piperidine-1-carbonyl)phenyl)amino)-5-methyl-5H-benzo[e]pyrimido[5,4-b][1,4]diazepin-6(11H)-one], for which the “% Ctrl, TRKA” value in assay [1] came to 78 % Ctrl. Moreover, in assay [2], the “% Ctrl, SNRK” value was 72 % Ctrl.
Regarding `CCOc1cc(C(=O)N2CCC(N3CCN(C)CC3)CC2)ccc1Nc1ncc2c(n1)N(C1CCCC1)c1ccccc1C(=O)N2C` [Compound 26], in assay [1], the “% Ctrl, TRKA” value amounted to 100 % Ctrl. In assay [2], the “% Ctrl, SNRK” value came out at 52 % Ctrl.
